According to paper PMC12000511, “Molecular basis for the assembly of the Vps5-Vps17 SNX-BAR proteins with Retromer” (Nature Communications, 2025):
Like-named read-outs stand apart in the source and are kept apart here. Where no end group is shown, it is not given here.

Key:
[1] = biological target: ctRetromer (Chaetomium thermophilum Retromer trimer of ctVps35, ctVps26 and ctVps29) (Chaetomium thermophilum); assay: ITC; Microcal PEAQ ITC, 25 °C, 50 mM Tris-HCl pH 7.5, 200 mM NaCl, 2 mM β-ME; Vps5/Vps17/SNX1 construct or peptide (200-400 µM) titrated into 10-15 µM Retromer or Vps29; single-site model, N set to 1.0 if close to 1
[2] = biological target: mouse VPS29 (mVPS29), long isoform (mouse); assay: as above
[3] = biological target: ctRetromer (Thermochaetoides thermophila, UniProt G0RZB5+G0S709); assay: ITC, binding to ctRetromer; set-up: species or system Chaetomium thermophilum
Description: (§1) All the bacterial constructs were expressed in BL21(DE3) competent cells using standard isopropyl 1-thio-β-D-galactopyranoside induction or autoinduction method as described previously[39],[72],[73]. To obtain the Retromer trimer complex, the GST-tagged Vps29 and Vps35 co-expressed cell pellet were mixed with His-Vps26 and resuspended in lysis buffer containing 50 mM Tris-HCl pH 7.5, 200 mM NaCl, 5% glycerol, 50 μg/ml benzamidine and DNase I before passed through a Constant System TS-Series cell disruptor. […] For all constructs, the lysate was clarified by centrifugation and the supernatant was loaded onto either Talon® resin (Clonetech) or glutathione sepharose (GE healthcare) for initial purification. To obtain the correct stoichiometry ratio of the Retromer complex, both Talon® resin and glutathione sepharose (GE healthcare) were applied. […] The flow-through containing complex was further purified using size-exclusion chromatography (SEC) equilibrated with a buffer containing 50 mM Tris-HCl pH 7.5, 200 mM NaCl, 2 mM β-ME. […] To avoid the non-specific cleavage by the residual proteases such as thrombin, a tablet of protease inhibitor cocktail was added into the complex mixture. To remove the unbound fractions, the complex mixture was further purified using Superose 6 increase 10/300 GL column using the SEC buffer described above.
In brief, the clarified lysate was loaded onto glutathione sepharose (GE healthcare) and eluted using elution buffer containing 50 mM Tris-HCl pH 7.5, 200 mM NaCl, 5% glycerol, 20 mM glutathione reduced and 50 μg/ml benzamidine. The flow-through was further purified using SEC as the final purification step. To avoid the degradation, the constructs containing N-terminal disordered parts of Vps5 and Vps17 were used in fresh and experiments were finished within 3 days after purification.
(§2) All the proteins used for ITC experiments were prepared in buffer containing 50 mM Tris-HCl pH 7.5, 200 mM NaCl, 2 mM β-ME. […] In all cases, the ITC titration sequence consisted of an initial 0.4 μl (not used in data processing) followed by 12 serial injections of 3.22 μl each with 180 s intervals. The resulting titration data were integrated with Malvern software package by fitting and normalized data to a single-site binding model, yielding the thermodynamic parameters Kd, ∆H, ∆G and −T∆S for all binding experiments. The stoichiometry was refined initially, and if the value was close to 1, then N was set to exactly 1.0 for calculation. Data presented are the mean of triplicate titrations for each experiment.

[4] = tested on: scRetromer and scSNX-BAR on supported membrane tubes; assay: Supported membrane tube (SMT) assay; format: biochemical, Saccharomyces cerevisiae; conditions: scSNX-BAR and scRetromer on SMTs containing 5% PtdIns(3)P
Description: Supported membrane tubes were generated as described[46]. Briefly, glass coverslips were first washed with 3 M NaOH for 5 min and rinsed with water before a 60 min treatment with piranha solution (95% H2SO4/30% H2O2 3:2 v/v). Coverslips were rinsed with water and dried on a heat block at 90 °C. Coverslips were then silanized with 3-glycidyloxypropyltrimethoxysilane (Catalogue no. 440167, Sigma) for 5 h under vacuum, rinsed with acetone and dried. Polyethylene glycol coating was done by placing the coverslips in a beaker containing PEG400 (Sigma) at 90 °C for 60 h. Coverslips were washed with distilled water and stored for up to 2 months at room temperature in a closed container.
To generate supported membrane tubes, lipids were mixed from 10 mg/mL stocks in a glass vial and diluted to a final concentration of 1 mg/mL in chloroform. The same lipid mix was used throughout this study (5% PI(3)P, 15% DOPS, 0.1% fluorescent lipid tracer (Cy5.5 PE or Texas red DHPE), 79.5% egg-PC). Lipids were then spotted (typically 1 µL, corresponding to about 1 nmol) on the coverslips and dried for 30 min under vacuum. The coverslip was mounted on an IBIDI 6-channel µ-slide (µ-Slide VI 0.4. IBIDI, catalog no: 80606). Lipids were hydrated for 15 min with buffer (PBS) and SMTs were generated by injecting PBS into the chamber using an Aladdin Single-Syringe Pump (World Precision Instruments, model n°. AL-1000) at a flow rate of 1,5 mL/min for 5 min. SMTs were left to stabilize without flow for 5 min before the start of the experiment. Protein stocks (typically 1–2 µM) were first diluted in PBS and then injected in the chamber at a flow rate of 80 µL per minute. Cyclic peptides were added to the proteins from a 30 mM stock in DMSO to a final concentration of 300 µM. the protein/peptide mix was incubated for 1 min at room temp (23 °C) before being added to the SMTubes.

[5] = biological target: T1, mVps29 (Mus musculus, UniProt Q9QZ88); assay: ITC, binding to mVps29; conditions: ITC, mVps29
T1 construct: GST (thrombin site) (N, cleaved yes); made in house; host or cells: E. coli BL21(DE3)
Description: as §1, §2

[6] = biological target: T2, hRetromer (Homo sapiens, UniProt Q96QK1+Q9UBQ0); assay: ITC, binding to hRetromer; conditions: for binding to hRetromer: ITC, same conditions as ctRetromer
T2 construct: GST (N); made in house; host or cells: E. coli BL21(DE3) (general statement for bacterial constructs)
Description: as §1, §2

[7] = ctRetromer alone, ITC 25 °C, pH 7.5, 200 mM NaCl, mean of triplicate titrations
[8] = ITC, ctRetromer, Average of 3 batches

Chain of ctRetromer (G0RZB5 entry or part of it): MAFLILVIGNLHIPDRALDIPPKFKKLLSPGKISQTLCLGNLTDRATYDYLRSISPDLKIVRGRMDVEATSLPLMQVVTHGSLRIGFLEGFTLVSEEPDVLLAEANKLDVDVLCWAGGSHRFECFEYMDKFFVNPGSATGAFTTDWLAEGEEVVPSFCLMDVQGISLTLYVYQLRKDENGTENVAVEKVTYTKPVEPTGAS
Chain of ctRetromer (G0S709 entry or part of it): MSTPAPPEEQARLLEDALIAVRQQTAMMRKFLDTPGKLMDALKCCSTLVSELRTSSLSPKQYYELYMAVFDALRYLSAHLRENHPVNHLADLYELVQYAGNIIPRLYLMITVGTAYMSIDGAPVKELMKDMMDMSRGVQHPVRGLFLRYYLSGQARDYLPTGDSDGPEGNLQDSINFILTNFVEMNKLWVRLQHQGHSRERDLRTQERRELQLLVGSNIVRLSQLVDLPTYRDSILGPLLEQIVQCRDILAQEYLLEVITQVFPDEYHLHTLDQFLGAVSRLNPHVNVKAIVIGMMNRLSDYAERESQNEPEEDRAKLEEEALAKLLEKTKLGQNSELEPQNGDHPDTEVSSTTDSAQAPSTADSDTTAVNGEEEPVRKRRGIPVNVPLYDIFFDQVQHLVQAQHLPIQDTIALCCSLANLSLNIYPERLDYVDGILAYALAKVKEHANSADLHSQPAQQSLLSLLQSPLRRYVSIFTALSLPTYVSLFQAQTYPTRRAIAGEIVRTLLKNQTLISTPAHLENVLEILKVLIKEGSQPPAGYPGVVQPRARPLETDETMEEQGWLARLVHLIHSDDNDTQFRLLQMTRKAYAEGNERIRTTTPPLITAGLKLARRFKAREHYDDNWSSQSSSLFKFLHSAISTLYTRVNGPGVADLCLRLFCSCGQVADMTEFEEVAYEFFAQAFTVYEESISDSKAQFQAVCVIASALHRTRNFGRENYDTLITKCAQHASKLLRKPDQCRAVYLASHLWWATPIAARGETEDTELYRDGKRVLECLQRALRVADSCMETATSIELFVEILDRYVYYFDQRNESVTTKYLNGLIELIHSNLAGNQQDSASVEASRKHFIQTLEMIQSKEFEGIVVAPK
Chain of ctRetromer (G0S0E6 entry or part of it, further chain): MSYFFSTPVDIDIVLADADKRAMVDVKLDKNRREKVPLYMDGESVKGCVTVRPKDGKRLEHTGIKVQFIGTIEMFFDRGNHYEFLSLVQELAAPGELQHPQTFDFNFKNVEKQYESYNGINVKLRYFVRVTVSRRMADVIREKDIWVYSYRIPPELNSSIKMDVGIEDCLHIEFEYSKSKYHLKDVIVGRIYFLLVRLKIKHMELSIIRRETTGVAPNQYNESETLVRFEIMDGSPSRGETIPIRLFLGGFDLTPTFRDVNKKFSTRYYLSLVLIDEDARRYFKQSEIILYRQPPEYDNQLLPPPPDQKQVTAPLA

## GST-ctVps5_(1–185) (domain or fragment)
[1]
  Kd: 0.72 µM
  dH: -3.1 kcal/mol
[2]
  Kd: 4.82 µM
  dH: -0.91 kcal/mol

## ctVps5_(71–80) peptide
[2]
  Kd: 54.1 µM
  dH: -8 kcal/mol

## SRATPRRIVAKPKSLEAVEDDPLGPLGA [ctVps5_53–80 peptide]
[3]; read-out: Kd
  Kd: 0.74 ± 0.05 µM

## scRetromer-mRuby: purified recombinant scRetromer carrying mRuby
[4]
  coat formation / recruitment on SMTs: co-recruited to the tubes within a minute after their addition

## GST-ctVps5_(1–50) (domain or fragment)
[1]
  Kd: 40.1 µM
  dH: -2.7 kcal/mol

## GST-ctVps5_(51–100) PL74AA (domain or fragment)
[1]
  Kd: 5.04 µM
  dH: -1.76 kcal/mol

## GST-ctVps5_61–80: GST-tagged ctVps5 residues 61–80 (VAKPKSLEAVEDDPLGPLGA; not fully specified (N-terminus); also: GST fusion, end not given here)
[3]; ITC 25 °C, pH 7.5, 200 mM NaCl
  binding to ctRetromer: bind very weakly
[3]; [7]
  ΔG: -5.76 ± 0.12 kcal/mol
  ΔH: -7.22 ± 1.94 kcal/mol
  −TΔS: 1.45 ± 2.07 kcal/mol
[3]; ctRetromer alone, Microcal PEAQ ITC, 25 °C, 50 mM Tris-HCl pH 7.5, 200 mM NaCl, 2 mM β-ME, single-site model, mean of triplicate titrations, read-out: Kd
  Kd: 60.1 ± 12.2 µM

## EDDPLGPLGA [ctVPS5 71 to 80]
[5]; Average of 3 batches
  Delta G: -5.8 kcal/mol
  Delta H: -8.0 kcal/mol
[5]; Batch 1
  Delta G: -5.92 kcal/mol
  Delta H: -6.98 kcal/mol
[5]; Batch 2
  Delta G: -5.8 kcal/mol
  Delta H: -9.07 kcal/mol
[5]; Batch 3
  Delta G: -5.82 kcal/mol
  Delta H: -7.81 kcal/mol
[3]; ITC, ctRetromer, Batch 1
  Kd: No binding
[3]; ITC, ctRetromer, Batch 2
  Kd: No binding
[3]; ITC, ctRetromer, Batch 3
  Kd: No binding

## SRATPRRIVAKPKSLEAVEDDPLGPLGA [ctVPS5 53 to 80]
[3]; [8]
  Delta G: -8.38 kcal/mol
  Delta H: -2.83 kcal/mol
  minus T delta S: -5.57 kcal/mol
[3]; ITC, ctRetromer, Batch 1
  Delta G: -8.4 kcal/mol
  Delta H: -3.44 kcal/mol
  minus T delta S: -4.89 kcal/mol
[3]; ITC, ctRetromer, Batch 2
  Delta G: -8.35 kcal/mol
  Delta H: -2.43 kcal/mol
  minus T delta S: -5.98 kcal/mol
[3]; ITC, ctRetromer, Batch 3
  Delta G: -8.38 kcal/mol
  Delta H: -2.62 kcal/mol
  minus T delta S: -5.85 kcal/mol

B1: ctVps5_(53–80) peptide (peptide)
peptide: SRATPRRIVAKPKSLEAVEDDPLGPLGA
[1]
  Kd: 0.74 µM
  dH: -2.83 kcal/mol

B2: GST-mSNX1_1–139: SNX1 N-terminal residues 1–139 (protein)
chain: MASGGGGCSASERLPPPFPGLEPESEGAAGGSEPEAGDSDTEGEDIFTGAAVVSKHQSPKITTSLLPINNGSKENGIHEEQDQEPQDLFADATVELSLDSTQNNQKKVLAKTLISLPPQEATNSSKPQPTYEELEEEEQ
modifications: left off: GST, end not stated, kept
[6]; ITC 25 °C, 50 mM Tris-HCl pH 7.5, 200 mM NaCl, 2 mM β-ME, mean of triplicate titrations
  Kd: No binding detected
[6]; listed as GST-hSNX1_1–139
  binding to hRetromer: no detectable interaction
[6]; listed as human SNX1
  binding to hRetromer: no detectable association

B3: scSNX-BAR-GFP: scVps5–scVps17 heterodimer tagged with GFP (protein)
chain 1: MDYEDNLEAPVWDELNHEGDKTQSLVSNSIESIGQISTNEERKDNELLETTASFADKIDLDSAPEWKDPGLSVAGNPQLEEHDNSKADDLINSLAPEQDPIADLKNSTTQFIATRESGGALFTGNANSPLVFDDTIYDANTSPNTSKSISGRRSGKPRILFDSARAQRNSKRNHSLKAKRTTASDDTIKTPFTDPLKKAEKENEFVEEPLDDRNERRENNEGKFTASVEKNILEQVDRPLYNLPQTGANISSPAEVEENSEKFGKTKIGSKVPPTEKAVAFKVEVKDPVKVGELTSIHVEYTVISESSLLELKYAQVSRRYRDFRWLYRQLQNNHWGKVIPPPPEKQSVGSFKENFIENRRFQMESMLKKICQDPVLQKDKDFLLFLTSDDFSSESKKRAFLTGSGAINDSNDLSEVRISEIQLLGAEDAAEVLKNGGIDAESHKGFMSISFSSLPKYNEADEFFIEKKQKIDELEDNLKKLSKSLEMVDTSRNTLAASTEEFSSMVETLASLNVSEPNSELLNNFADVHKSIKSSLERSSLQETLTMGVMLDDYIRSLASVKAIFNQRSKLGYFLVVIENDMNKKHSQLGKLGQNIHSEKFREMRKEFQTLERRYNLTKKQWQAVGDKIKDEFQGFSTDKIREFRNGMEISLEAAIESQKECIELWETFYQTNL
chain 2: MTSAVPYDPYDDLDNNPFAEPQEEDSEPAATTTDGSSSMSEERVGTEQTAASVQDNGTANNIQNGLGEEGNATRSKTSNEHNENQQPSQPSERVILPERSDEKKKYTLLAKVTGLERFGSATGKKENPTIIFDCSTNLPTFRKQQYKNVKKSYEEFHQLFKYLNVAIQESFVPTLPSAYTTFGINSEEDRMKVTRNFQLWFNRLSQDPLIIRNEEVAFFIESDFNTYTPINKSKSLASGLKRKTLKQLAPPYDEITELAEFRPLVKSIYVVSQSLQEKLLRVSRNRKMMVQEENAFGQDFVNLDEHNKLYRRYGKILTAVGDIDSIIATMDMATLYDGLEWIVRDAYAVKEALTNRHFIMRNLVQAQQNSKAKQEQARRFRSRRDINPMKIDEALRQLKAAAKNEQVLTLKLQRITSNMIIERKQWISWYEEWIRSSIKEFTLRKIEYERKKLTLLERVRSDIRKADENGGLSRLGRHAVSNNNSDTSQTLKGDSWTGESNRKSQIPINKIAHTEFDDELFTEDDGYNSQDSDTTSLNARHAASLLGMSTK
[4]
  coat formation / recruitment on SMTs: co-recruited to the tubes within a minute after their addition

B4: GST-ctVps5_(61–80) (domain or fragment)
chain: VAKPKSLEAVEDDPLGPLGA
modifications: also: GST fusion
[1]
  Kd: 60.1 µM
  dH: -7.22 kcal/mol
